Source: patent US20100267561A1, “HERBICIDAL PYRIDAZINONE DERIVATIVES” (priority 2007, published 2010)
Like-named read-outs stand apart in the source and are kept apart here.

How the values were obtained:
Assay in all cases: Test B pre-/postemergence plant response
Type in all cases: in vivo
soybean (Glycine max) = settings: for plant injury at 31 g/ha / plant injury at 62 g/ha: Glycine max, read-out: Plant response rating, Soybean; for plant injury at 31 g/ha: 31 g ai/ha; for plant injury at 62 g/ha: 62 g ai/ha, 100 complete control
Method in brief: (§1)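 Seeds were sown and sprayed preemergence, while plants at 2 to 18 cm (1- to 4-leaf stage) got postemergence sprays. Compounds were formulated in a non-phytotoxic solvent mixture with surfactant. After 13 to 15 days in a greenhouse, injury was rated visually against untreated controls, 0 (no effect) to 100 (complete control).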

[1] = system: Russian thistle (Salsola iberica); settings: Preemergence
Method in brief: as §1

[2] = system: giant foxtail (Setaria faberii); settings: for pest or weed control at 31 g/ha: 31 g ai/ha; for pest or weed control at 62 g/ha: 62 g ai/ha, 100 complete control
Method in brief: as §1

[3] = system: yellow nutsedge (Cyperus esculentus); settings: for pest or weed control at 31 g/ha / pest or weed control at 62 g/ha: Cyperus, read-out: Plant response rating, Nutsedge, Yellow; for pest or weed control at 31 g/ha: 31 g ai/ha; for pest or weed control at 62 g/ha: 62 g ai/ha, 100 complete control
Method in brief: as §1

[4] = system: bermudagrass (Cynodon dactylon); settings: for pest or weed control at 31 g/ha: 31 g ai/ha; for pest or weed control at 62 g/ha: 62 g ai/ha, 100 complete control
Method in brief: as §1

corn (Zea mays) = settings: for Corn plant response rating (crop injury, 0 = no effect, 100 = complete kill) at 31 g/ha: 31 g ai/ha; for Corn plant response rating (crop injury, 0 = no effect, 100 = complete kill) at 62 g/ha: 62 g ai/ha, 100 complete control
Method in brief: as §1

[5] = system: green foxtail (Setaria viridis)
Method in brief: as §1

[6] = 8 g ai/ha, postemergence, 0-100 scale
[7] = 16 g ai/ha, postemergence, 0-100 scale
[8] = post-emergence, Postemergence, scale 0 to 100
[9] = post-emergence, Postemergence, scale 0 to 100, 0 no effect
[10] = pre-emergence, Preemergence, scale 0 to 100 (0 no effect, 100 complete control)
[11] = pre-emergence, Preemergence, 0 to 100 scale, 0 no effect
[12] = Preemergence, 8 g ai/ha, scale 0 to 100 (0 no effect, 100 complete control)
[13] = Preemergence, 16 g ai/ha, scale 0 to 100

For `Cc1cc(-c2ccc(Br)cc2)nn1-c1c(O)cn[nH]c1=O` [Compound 78, 4-[3-(4-bromophenyl)-5-methyl-1H-pyrazol-1-yl]-5-hydroxy-3(2H)-pyridazinone], the “Soybean plant response rating” value (soybean (Glycine max); [6]) was 0, the “Soybean plant response rating” value (soybean (Glycine max); [7]) was 15 and the plant injury at 31 g/ha (soybean (Glycine max); [8]) was 20%. It also gave a plant injury at 62 g/ha (soybean (Glycine max); [9]) of 25%, a plant injury at 31 g/ha (soybean (Glycine max); [10]) of 0% and a plant injury at 62 g/ha (soybean (Glycine max); [11]) of 0%. For the same molecule, the “Soybean plant response rating” value (soybean (Glycine max); [12]) was 0, the “Soybean plant response rating” value (soybean (Glycine max); [13]) was 0 and the “Russian Thistle plant response rating” value ([1]; 8 g ai/ha, scale 0 to 100 (0 no effect, 100 complete control)) was 0. The “Plant response rating, Russian Thistle” value ([1]; 31 g ai/ha, scale 0 to 100 (0 no effect, 100 complete control)) was 0, the “Plant response rating, Russian Thistle” value ([1]; 62 g ai/ha, 0 to 100 scale, 0 no effect, 100 complete control) was 0 and the “Russian Thistle plant response rating” value ([1]; 16 g ai/ha, scale 0 to 100) was 0. The “Foxtail, Giant plant response rating” value [2, 6] was 98, the “Foxtail, Giant plant response rating” value [2, 12] was 98 and the “Foxtail, Giant plant response rating” value [2, 13] was 100. For the same molecule, the pest or weed control at 16 g/ha ([2]; Setaria faberi, post-emergence, Postemergence, 16 g ai/ha, scale 0 to 100, read-out: Plant response rating, Foxtail, Giant) was 100%, the pest or weed control at 31 g/ha ([2]; Setaria faberi, post-emergence, Postemergence, scale 0 to 100, read-out: Plant response rating, Foxtail, Giant) was 100% and the pest or weed control at 62 g/ha ([2]; Setaria faberi, post-emergence, Postemergence, scale 0 to 100, 0 no effect, read-out: Plant response rating, Foxtail, Giant) was 100%. The pest or weed control at 31 g/ha ([2]; Setaria faberi, pre-emergence, Preemergence, scale 0 to 100 (0 no effect, 100 complete control), read-out: Plant response rating, Foxtail, Giant) was 100%, the pest or weed control at 62 g/ha ([2]; Setaria faberi, pre-emergence, Preemergence, 0 to 100 scale, 0 no effect, read-out: Plant response rating, Foxtail, Giant) was 100% and the “Nutsedge, Yellow plant response rating” value [3, 6] was 0. The “Nutsedge, Yellow plant response rating” value [3, 7] was 0, the pest or weed control at 31 g/ha [3, 8] was 0% and the pest or weed control at 62 g/ha [3, 9] was 0%. For the same molecule, the pest or weed control at 31 g/ha [3, 10] was 0%, the pest or weed control at 62 g/ha [3, 11] was 0% and the “Nutsedge, Yellow plant response rating” value [3, 12] was 0. The “Nutsedge, Yellow plant response rating” value [3, 13] was 0, the “Bermudagrass plant response rating” value [4, 6] was 80 and the pest or weed control at 16 g/ha ([4]; Cynodon dactylon, post-emergence, Postemergence, 16 g ai/ha, scale 0 to 100, read-out: Plant response rating, Bermudagrass) was 98%. For the same molecule, the pest or weed control at 31 g/ha ([4]; Cynodon dactylon, post-emergence, Postemergence, scale 0 to 100, read-out: Plant response rating, Bermudagrass) was 100%, the pest or weed control at 62 g/ha ([4]; Cynodon dactylon, post-emergence, Postemergence, scale 0 to 100, 0 no effect, read-out: Plant response rating, Bermudagrass) was 100% and the pest or weed control at 31 g/ha ([4]; Cynodon dactylon, pre-emergence, Preemergence, scale 0 to 100 (0 no effect, 100 complete control), read-out: Plant response rating, Bermudagrass) was 100%. For the same molecule, the pest or weed control at 62 g/ha ([4]; Cynodon dactylon, pre-emergence, Preemergence, 0 to 100 scale, 0 no effect, read-out: Plant response rating, Bermudagrass) was 100%, the “Bermudagrass plant response rating” value [4, 12] was 85 and the “Bermudagrass plant response rating” value ([4]; Preemergence, 16 g ai/ha, scale 0 to 100 (0 no effect, 100 complete control)) was 100. For the same molecule, the “Corn plant response rating” value (corn (Zea mays); [6]) was 40, the “Corn plant response rating” value (corn (Zea mays); [12]) was 55 and the “Corn plant response rating” value (corn (Zea mays); [13]) was 85. The Corn plant response rating (crop injury, 0 = no effect, 100 = complete kill) at 16 g/ha (corn (Zea mays); Zea mays, post-emergence, Postemergence, 16 g ai/ha, scale 0 to 100) was 100%, the Corn plant response rating (crop injury, 0 = no effect, 100 = complete kill) at 31 g/ha (corn (Zea mays); Zea mays, post-emergence, Postemergence, scale 0 to 100) was 100% and the Corn plant response rating (crop injury, 0 = no effect, 100 = complete kill) at 62 g/ha (corn (Zea mays); Zea mays, post-emergence, Postemergence, scale 0 to 100, 0 no effect) was 100%. The Corn plant response rating (crop injury, 0 = no effect, 100 = complete kill) at 31 g/ha (corn (Zea mays); Zea mays, pre-emergence, Preemergence, scale 0 to 100 (0 no effect, 100 complete control)) was 100%, the Corn plant response rating (crop injury, 0 = no effect, 100 = complete kill) at 62 g/ha (corn (Zea mays); Zea mays, pre-emergence, Preemergence, 0 to 100 scale, 0 no effect) was 100% and the “Foxtail, Green plant response rating” value [5, 6] was 40. For the same molecule, the “Foxtail, Green plant response rating” value [5, 12] was 100, the “Foxtail, Green plant response rating” value [5, 13] was 100 and the pest or weed control at 16 g/ha ([5]; Setaria viridis, post-emergence, Postemergence, 16 g ai/ha, scale 0 to 100, read-out: Plant response rating, Foxtail, Green) was 60%. The pest or weed control at 31 g/ha ([5]; Setaria viridis, post-emergence, Postemergence, 31 g ai/ha, scale 0 to 100, read-out: Plant response rating, Foxtail, Green) was 80% and the pest or weed control at 62 g/ha ([5]; Setaria viridis, post-emergence, Postemergence, 62 g ai/ha, scale 0 to 100, 0 no effect, 100 complete control, read-out: Plant response rating, Foxtail, Green) was 100%.
